Test results published in ChEMBL document CHEMBL5528053, “Discovery of Novel Isoquinoline Analogues as Dual Tubulin Polymerization/V-ATPase Inhibitors with Immunogenic Cell Death Induction” (J Med Chem, 2024).
The source made the active and inactive calls. The rule behind the calls is not given here.

Experiments:
[1] = Toxicity in ICR mouse assessed as effect on ALT level at 10 mg/kg, ip measured for 14 days; type: organism-based; conditions: in vivo, 336 h, time 14 day
PC-3 [2] = assay: Induction of apoptosis in human PC-3 cells assessed as necrotic cells at 200 nM measured after 24 hrs by annexin V-FITC and PI staining based flow cytometry analysis (reference value: 6.01%); type: functional
PC-3 [3] = assay: Downregulation of acetyl-alpha tubulin expression in human PC-3 cells incubated for 24 hrs by Western blot analysis; type: functional, cell-based; conditions: dose 50-200 nM
PC-3 [4] = assay: Induction of cell cycle arrest in human PC-3 cells assessed as reduction in CDC2 phosphorylation at Thr161 residue at 50 to 200 nM incubated for 24 hrs by DAPI staining based analysis; type: functional; conditions: dose 50-200 nM
[5] = Antitumor activity against mouse RM1 cells xenografted in immunocompetent […] mouse model assessed as tumor growth inhibition at 5 mg/kg, iv measured every two days for 14 days relative to control; type: functional; conditions: RM1, 336 h, time 14 day, read-out: TGI
RM1 [6] = assay: Antitumor immunity against mouse RM1 cells homografted in C57BL/6 mouse model assessed as increase in activation of tumor infiltrating lymphocytes in spleen at 5 to 10 mg/kg, iv administered every two days for 14 days by flow cytometry analysis; type: functional, organism-based; conditions: dose 5-10 mg/kg, time 14.0 day
RM1 [7] = assay: Antitumor immunity against mouse RM1 cells homografted in C57BL/6 mouse model assessed as increase in tumor infiltrating CD3+CD8+T cells (CTLs) in spleen at 5 to 10 mg/kg, iv administered every two days for 14 days by flow cytometry analysis; type: functional, organism-based; conditions: dose 5-10 mg/kg, time 14.0 day
[8] = Antitumor immunity against mouse RM1 cells homografted in C57BL/6 mouse model assessed as increase in tumor infiltrating helper T lymphocytes at 10 mg/kg, iv administered every two days for 14 days by flow cytometry analysis (reference value: 6.59%); type: functional; conditions: time 14 day
PC-3 [9] = assay: Inhibition of V-ATPase activity in lysosomes of human PC-3 cells assessed as decrease in fluorescence at 50 to 200 nM incubated for 24 hrs by Lyso tracker red staining based inverted fluorescent microscopic analysis; type: subcellular; conditions: Lysosome, dose 50-200 nM
[10] = Toxicity in ICR mouse assessed as effect on kidney at 10 mg/kg, ip measured for 14 days by H and E staining based analysis; type: organism-based; conditions: in vivo, 336 h, time 14 day
PC-3 [11] = assay: Induction of endoplasmic reticulum (ER) stress in human PC-3 cells assessed as upregulation of CHOP phosphorylation level at 50 to 200 nM measured after 24 hrs by Western blot analysis; type: functional, cell-based; conditions: dose 50-200 nM
PC-3 [12] = assay: Induction of apoptosis in human PC-3 cells assessed as late apoptotic cells at 50 nM measured after 24 hrs by annexin V-FITC and PI staining based flow cytometry analysis (reference value: 2.37%); type: functional
DU-145 = assay: Antiproliferative activity against human DU-145 cells assessed as inhibition of cell growth after 72 hrs by MTT assay; type: functional, cell-based; conditions: DU-145, 72 h
[13] = Antitumor immunity against mouse RM1 cells homografted in C57BL/6 mouse model assessed as increase in tumor infiltrating lymphocytes at 5 mg/kg, iv administered every two days for 14 days by flow cytometry analysis (reference value: 5.26%); type: functional; conditions: time 14 day
PC-3 [14] = assay: Induction of immunogenic cell death in human PC-3 cells assessed as increase in CRT translocation to cell surface at 200 nM measured after 12 hrs in presence of NAC by DAPI staining based analysis; type: functional
[15] = Antitumor immunity against mouse RM1 cells homografted in C57BL/6 mouse model assessed as increase in tumor infiltrating helper T lymphocytes at 5 mg/kg, iv administered every two days for 14 days by flow cytometry analysis (reference value: 6.59%); type: functional; conditions: time 14 day
RM1 [16] = assay: Antitumor immunity against mouse RM1 cells homografted in C57BL/6 mouse model assessed as increase in tumor infiltrating helper T lymphocytes in spleen at 5 to 10 mg/kg, iv administered every two days for 14 days by flow cytometry analysis; type: functional, organism-based; conditions: dose 5-10 mg/kg, time 14.0 day
PC-3 [17] = assay: Induction of cell cycle arrest in human PC-3 cells assessed as accumulation of cells at S phase at 200 nM incubated for 24 hrs by flow cytometry analysis (reference value: 31.3%); type: functional
PC-3 [18] = assay: Induction of apoptosis in human PC-3 cells assessed as early apoptotic cells at 50 nM measured after 24 hrs by annexin V-FITC and PI staining based flow cytometry analysis (reference value: 1.03%); type: functional
PC-3 [19] = assay: Upregulation of detyrosinated-alpha tubulin expression in human PC-3 cells incubated for 24 hrs by Western blot analysis; type: functional, cell-based; conditions: dose 50-200 nM
PC-3 [20] = assay: Upregulation of intracellular eIF2alpha expression at […] residues in human PC-3 cells incubated for 24 hrs by DAPI staining based analysis; type: functional, cell-based; conditions: dose 50-200 nM
PC-3 [21] = assay: Induction of cell cycle arrest in human PC-3 cells assessed as accumulation of cells at G1 phase at 200 nM incubated for 24 hrs by flow cytometry analysis (reference value: 49.4%); type: functional
PC-3 [22] = assay: Induction of immunogenic cell death in human PC-3 cells assessed as increase in CRT translocation to cell surface at 50 to 200 nM measured after 12 hrs by DAPI staining based analysis; type: functional; conditions: dose 50-200 nM
PC-3 [23] = assay: Antiproliferative activity against human PC-3 cells assessed as inhibition of cell growth after 72 hrs by MTT assay; type: functional, cell-based; conditions: PC-3, 72 h
PC-3 [24] = assay: Induction of apoptosis in human PC-3 cells assessed as increase in Cl-PARP level at 50 to 200 nM incubated for 24 hrs by Western blot analysis; type: functional, cell-based; conditions: dose 50-200 nM
PC-3 [25] = assay: Induction of apoptosis in human PC-3 cells assessed as increase in ADP-ribose level at 50 to 200 nM incubated for 24 hrs by Western blot analysis; type: functional, cell-based; conditions: dose 50-200 nM
PC-3 [26] = assay: Induction of apoptosis in human PC-3 cells assessed as downregulation of bcl-2 level at 50 to 200 nM incubated for 24 hrs by Western blot analysis; type: functional, cell-based; conditions: dose 50-200 nM
PC-3 [27] = assay: Induction of immunogenic cell death in human PC-3 cells assessed as effect on CRT expression at 50 to 200 nM; type: functional, cell-based; conditions: dose 50-200 nM
Cell membrane = assay: Induction of mitochondrial membrane potential loss in human PC-3 cells assessed as increase in green fluorescence at 50 to 200 nM incubated for 24 hrs by JC-1 staining based confocal microscopy analysis; conditions: dose 50-200 nM
PC-3 [28] = assay: Induction of apoptosis in human PC-3 cells assessed as viable cells at 100 nM measured after 24 hrs by annexin V-FITC and PI staining based flow cytometry analysis (reference value: 90.6%); type: functional; conditions: read-out: Activity
PC-3 [29] = assay: Induction of cell cycle arrest in human PC-3 cells assessed as accumulation of cells at G1 phase at 100 nM incubated for 24 hrs by flow cytometry analysis (reference value: 49.4%); type: functional
PC-3 [30] = assay: Inhibition of V-ATPase activity in lysosomes of human PC-3 cells assessed as decrease in fluorescence at 50 to 200 nM incubated for 24 hrs by acridine orange staining based inverted fluorescent microscopic analysis; type: subcellular; conditions: Lysosome, dose 50-200 nM
PC-3 [31] = assay: Inhibition of V-ATPase activity in human PC-3 cells at 50 nM measured after 24 hrs by colorimetric assay relative to control; type: cell-based
A549 = assay: Antiproliferative activity against human A549 cells assessed as inhibition of cell growth after 72 hrs by MTT assay; type: functional, cell-based; conditions: A549, 72 h

With COc1cc(-c2nc(C(N)=O)cc3cc4c(cc23)OCCO4)cc(Br)c1OC the Activity [1] was “Non-Toxic”, the Activity (PC-3 [2]) was 6.91% and the Activity (PC-3 [3]) was “Dose-Dependent Effect”. The Activity (PC-3 [4]) was “Active”, the inhibition in vivo at 5 mg/kg [5] was 54.6% and the Activity (RM1 [6]) was “Active”. The Activity (RM1 [7]) was “Active”, the Activity [8] was 14.2% and the inhibition (PC-3 [9]) was “Active”. The Activity [10] was “Non-Toxic”, the Activity (PC-3 [11]) was “Active” and the Activity (PC-3 [12]) was 3.51%. For the same molecule, the IC50 (DU-145) was 110 nM, the Activity [13] was 7.01% and the Activity (PC-3 [14]) was “inactive”. The Activity [15] was 10.9%, the Activity (RM1 [16]) was “Active” and the Activity (PC-3 [17]) was 17.1%. For the same molecule, the Activity (PC-3 [18]) was 1.93%, the Activity (PC-3 [19]) was “Dose-Dependent Effect” and the Activity (PC-3 [20]) was “Dose-Dependent Effect”. For the same molecule, the Activity (PC-3 [21]) was 17.9%, the Activity (PC-3 [22]) was “Active” and the IC50 (PC-3 [23]) was 60 nM. For the same molecule, the Activity (PC-3 [24]) was “Active”, the Activity (PC-3 [25]) was “Active” and the Activity (PC-3 [26]) was “Active”. The Activity (PC-3 [27]) was “Active”, the Activity (Cell membrane) was “Active” and the viability at 0.1 µM (PC-3 [28]) was 61.7%. For the same molecule, the Activity (PC-3 [29]) was 34.1%, the inhibition (PC-3 [30]) was “Active” and the inhibition (PC-3 [31]) was 15.8%. It also gave an IC50 (A549) of 90 nM.
